Measured values published in ChEMBL document CHEMBL1201861, “Genomics of Drug Sensitity in Cancer screening data, Wellcome Trust Sanger Institute”.
pIC50: −log10 of the molar value.

Key:
Assay in all cases: cells
Capan-2 = type: functional, cell-based, Homo sapiens; conditions: Homo sapiens, Capan-2;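 further: Capan-2 cell growth inhibition, read out with a viability assay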
Description: SANGER: Inhibition of human Capan-2 cell growth in a cell viability assay.

Daoy = type: functional, cell-based, Homo sapiens; conditions: Homo sapiens, Daoy;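 further: daoy cell growth inhibition, read out as cell viability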
Description: SANGER: Inhibition of human Daoy cell growth in a cell viability assay.

EFO-27 = type: functional, cell-based, Homo sapiens; conditions: Homo sapiens, EFO-27;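 further: growth inhibition of EFO-27 cells, read out with a cell viability assay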
Description: SANGER: Inhibition of human EFO-27 cell growth in a cell viability assay.

G-361 = type: functional, cell-based, Homo sapiens; conditions: Homo sapiens, G-361
G-402 = type: functional, cell-based, Homo sapiens; conditions: Homo sapiens, G-402
Description: SANGER: Inhibition of human G-402 cell growth in a cell viability assay.

HMV-2 cell line = type: functional, cell-based, Homo sapiens; conditions: Homo sapiens, HMV-2;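 further: growth inhibition of HMV-II cells, read out with a cell viability assay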
Description: SANGER: Inhibition of human HMV-II cell growth in a cell viability assay.

HT55 = type: functional, cell-based, Homo sapiens; conditions: Homo sapiens, HT55;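 further: cell viability readout measuring growth inhibition of human HT55 cells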
Description: SANGER: Inhibition of human HT55 cell growth in a cell viability assay.

HuCCT-1 = type: functional, cell-based, Homo sapiens, HuCCT1; conditions: Homo sapiens, HuCCT-1;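 further: growth inhibition of HuCCT-1 cells, read out by a cell viability assay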
Description: SANGER: Inhibition of human HuCCT1 cell growth in a cell viability assay.

IGROV-1 = type: functional, cell-based, Homo sapiens; conditions: Homo sapiens, IGROV-1;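 further: reduction of IGROV-1 cell growth, read out with a viability assay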
Description: SANGER: Inhibition of human IGROV-1 cell growth in a cell viability assay.

K052 = type: functional, cell-based, Homo sapiens; conditions: Homo sapiens, K052;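 further: Read-out from a cell viability assay, IC50 reflecting suppression of K052 cell growth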
Description: SANGER: Inhibition of human K052 cell growth in a cell viability assay.

LC4-1 = type: functional, cell-based, Homo sapiens; conditions: Homo sapiens, LC4-1;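 further: growth inhibition of LC4-1 cells, read out with a cell viability assay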
Description: SANGER: Inhibition of human LC4-1 cell growth in a cell viability assay.

LU-99A = type: functional, cell-based, Homo sapiens; conditions: Homo sapiens, LU-99A;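 further: growth inhibition of LU-99A cells, read out with a cell viability assay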
Description: SANGER: Inhibition of human LU-99A cell growth in a cell viability assay.

MHH-CALL-2 = type: functional, cell-based, Homo sapiens; conditions: Homo sapiens, MHH-CALL-2;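 further: growth inhibition of the cell line, read out in a cell viability assay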
Description: SANGER: Inhibition of human MHH-CALL-2 cell growth in a cell viability assay.

MKN-1 = type: functional, cell-based, Homo sapiens; conditions: Homo sapiens, MKN-1;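 further: growth inhibition of human MKN1 cells, read out by a cell viability measurement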
Description: SANGER: Inhibition of human MKN1 cell growth in a cell viability assay.

MKN-7 = type: functional, cell-based, Homo sapiens; conditions: Homo sapiens, MKN-7;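 further: growth inhibition of MKN-7 cells, read out with a cell viability assay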
Description: SANGER: Inhibition of human MKN7 cell growth in a cell viability assay.

NCI-H1436 = type: functional, cell-based, Homo sapiens; conditions: Homo sapiens, NCI-H1436;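 further: growth suppression of human NCI-H1436 cells, determined with a cell viability readout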
Description: SANGER: Inhibition of human NCI-H1436 cell growth in a cell viability assay.

NCI-H1694 = type: functional, cell-based, Homo sapiens; conditions: Homo sapiens, NCI-H1694;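 further: cell viability assay measuring inhibition of growth in human NCI-H1694 cells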
Description: SANGER: Inhibition of human NCI-H1694 cell growth in a cell viability assay.

NCI-H2452 = type: functional, cell-based, Homo sapiens; conditions: Homo sapiens, NCI-H2452;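 further: growth inhibition of NCI-H2452 cells, read out with a cell viability assay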
Description: SANGER: Inhibition of human NCI-H2452 cell growth in a cell viability assay.

NCI-H358 = type: functional, cell-based, Homo sapiens; conditions: Homo sapiens, NCI-H358;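 further: growth inhibition of NCI-H358 human cells, read out with a cell viability assay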
Description: SANGER: Inhibition of human NCI-H358 cell growth in a cell viability assay.

NCI-H748 = type: functional, cell-based, Homo sapiens; conditions: Homo sapiens, NCI-H748;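 further: growth inhibition of NCI-H748 cells, measured by a cell viability assay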
Description: SANGER: Inhibition of human NCI-H748 cell growth in a cell viability assay.

NCI-H810 = type: functional, cell-based, Homo sapiens; conditions: Homo sapiens, NCI-H810;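 further: IC50 reflects inhibition of cancer cell line growth, read out with a cell viability assay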
Description: SANGER: Inhibition of human NCI-H810 cell growth in a cell viability assay.

OVCAR-5 = type: functional, cell-based, Homo sapiens; conditions: Homo sapiens, OVCAR-5;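 further: growth inhibition of human OVCAR-5 cells, read out with a cell viability assay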
Description: SANGER: Inhibition of human OVCAR-5 cell growth in a cell viability assay.

PANC-08-13 = type: functional, cell-based, Homo sapiens; conditions: Homo sapiens, PANC-08-13;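 further: cell growth inhibition, measured with a cell viability assay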
Description: SANGER: Inhibition of human PANC-08-13 cell growth in a cell viability assay.

RMG-I = type: functional, cell-based, Homo sapiens; conditions: Homo sapiens, RMG-I;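 further: growth inhibition of human RMG-I cells, read out with a cell viability assay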
Description: SANGER: Inhibition of human RMG-I cell growth in a cell viability assay.

Raji = type: functional, cell-based, Homo sapiens; conditions: Homo sapiens, Raji;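 further: cell viability assay measuring inhibition of Raji cell growth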
Description: SANGER: Inhibition of human Raji cell growth in a cell viability assay.

SF-295 = type: functional, cell-based, Homo sapiens; conditions: Homo sapiens, SF-295;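 further: growth inhibition of SF-295 cells, read out with a cell viability assay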
Description: SANGER: Inhibition of human SF295 cell growth in a cell viability assay.

SK-HEP1 = type: functional, cell-based, Homo sapiens, SK-HEP-1; conditions: Homo sapiens, SK-HEP1;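 further: cell viability readout used to quantify reduction in proliferation of human SK-HEP-1 cells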
Description: SANGER: Inhibition of human SK-HEP-1 cell growth in a cell viability assay.

SK-MM-2 = type: functional, cell-based, Homo sapiens; conditions: Homo sapiens, SK-MM-2;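 further: growth inhibition of human SK-MM-2 cells, read out with a cell viability assay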
Description: SANGER: Inhibition of human SK-MM-2 cell growth in a cell viability assay.

SN12C = type: functional, cell-based, Homo sapiens; conditions: Homo sapiens, SN12C;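 further: growth inhibition of human SN12C cells, measured by a cell viability assay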
Description: SANGER: Inhibition of human SN12C cell growth in a cell viability assay.

SW626 = type: functional, cell-based, Homo sapiens; conditions: Homo sapiens, SW626;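 further: growth inhibition of SW626 cells, measured with a cell viability assay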
Description: SANGER: Inhibition of human SW626 cell growth in a cell viability assay.

SW948 = type: functional, cell-based, Homo sapiens; conditions: Homo sapiens, SW948;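 further: growth inhibition of SW948 cells, read out with a cell viability assay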
Description: SANGER: Inhibition of human SW948 cell growth in a cell viability assay.

TCC-SUP = type: functional, cell-based, Homo sapiens; conditions: Homo sapiens, TCC-SUP;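 further: growth inhibition of TCC-SUP cells, read out with a cell viability assay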
Description: SANGER: Inhibition of human TCCSUP cell growth in a cell viability assay.

23132-87 = type: functional, cell-based, Homo sapiens; conditions: Homo sapiens
Description: SANGER: Inhibition of human 23132-87 cell growth in a cell viability assay.

A-427 = type: functional, cell-based, Homo sapiens; conditions: Homo sapiens, A-427;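 further: growth inhibition of human A-427 cells, read out by a cell viability assay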
Description: SANGER: Inhibition of human A427 cell growth in a cell viability assay.

A673 = type: functional, cell-based, Homo sapiens; conditions: Homo sapiens, A673;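 further: growth inhibition of human A673 cells, read out through a cell viability assay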
Description: SANGER: Inhibition of human A673 cell growth in a cell viability assay.

BC-3 = type: functional, cell-based, Homo sapiens; conditions: Homo sapiens, BC-3;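 further: cell viability assay measuring growth inhibition of human BC-3 cells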
Description: SANGER: Inhibition of human BC-3 cell growth in a cell viability assay.

BFTC-909 = type: functional, cell-based, Homo sapiens; conditions: Homo sapiens, BFTC-909
Description: SANGER: Inhibition of human BFTC-909 cell growth in a cell viability assay.

BHY = type: functional, cell-based, Homo sapiens; conditions: Homo sapiens, BHY;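 further: cell growth inhibition read out by a viability assay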
Description: SANGER: Inhibition of human BHY cell growth in a cell viability assay.

C32 = type: functional, cell-based, Homo sapiens; conditions: Homo sapiens, C32;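 further: cell viability assay, with IC50 reflecting inhibition of C32 cell growth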
Description: SANGER: Inhibition of human C32 cell growth in a cell viability assay.

CAL-12T = type: functional, cell-based, Homo sapiens; conditions: Homo sapiens, CAL-12T;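 further: growth inhibition of human CAL-12T cells, read out with a cell viability assay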
Description: SANGER: Inhibition of human CAL-12T cell growth in a cell viability assay.

CAL-33 = type: functional, cell-based, Homo sapiens; conditions: Homo sapiens, CAL-33;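 further: growth inhibition of CAL-33 cells, read out with a cell viability assay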
Description: SANGER: Inhibition of human CAL-33 cell growth in a cell viability assay.

U-118-MG = type: functional, cell-based, Homo sapiens; conditions: Homo sapiens, U-118-MG
Description: SANGER: Inhibition of human U-118-MG cell growth in a cell viability assay.

WM-115 = type: functional, cell-based, Homo sapiens; conditions: Homo sapiens, WM-115
Description: SANGER: Inhibition of human WM-115 cell growth in a cell viability assay.

CMK = type: functional, cell-based, Homo sapiens; conditions: Homo sapiens, CMK;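 further: growth inhibition of CMK cells, read out as cell viability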
Description: SANGER: Inhibition of human CMK cell growth in a cell viability assay.

Cc1cc([N+](=O)[O-])ccc1NS(=O)(=O)c1cc(Cl)ccc1Cl
pIC50 (Capan-2): 5.09 | pIC50 (Daoy): 5.38 | pIC50 (EFO-27): 5.32 | pIC50 (G-361): 5.75 | pIC50 (G-402): 5.33 | pIC50 (HMV-2 cell line): 5.81 | pIC50 (HT55): < 4.49 | pIC50 (HuCCT-1): 5.14 | pIC50 (IGROV-1): 5.58 | pIC50 (K052): 4.85 | pIC50 (LC4-1): 4.86 | pIC50 (LU-99A): 5.91 | pIC50 (MHH-CALL-2): 4.74 | pIC50 (MKN-1): 5.38 | pIC50 (MKN-7): < 4.49 | pIC50 (NCI-H1436): < 4.49 | pIC50 (NCI-H1694): 4.64 | pIC50 (NCI-H2452): < 4.49 | pIC50 (NCI-H358): 5.20 | pIC50 (NCI-H748): < 4.49 | pIC50 (NCI-H810): 5.90 | pIC50 (OVCAR-5): 4.63 | pIC50 (PANC-08-13): < 4.49 | pIC50 (RMG-I): 4.94 | pIC50 (Raji): 5.19 | pIC50 (SF-295): 5.63 | pIC50 (SK-HEP1): 5.54 | pIC50 (SK-MM-2): < 4.49 | pIC50 (SN12C): 5.44 | pIC50 (SW626): 5.51 | pIC50 (SW948): 4.91 | pIC50 (TCC-SUP): 5.32 | pIC50 (23132-87): 5.46 | pIC50 (A-427): 6.64 | pIC50 (A673): 5.52 | pIC50 (BC-3): 5.08 | pIC50 (BFTC-909): 5.44 | pIC50 (BHY): 5.35 | pIC50 (C32): > 6.90 | pIC50 (CAL-12T): 5.99 | pIC50 (CAL-33): 5.45 | pIC50 (U-118-MG): < 4.49 | pIC50 (WM-115): < 4.49 | pIC50 (CMK): 5.32

N#Cc1c(O)c2c(-c3ccc(-c4ccccc4O)cc3)csc2[nH]c1=O
pIC50 (Capan-2): < 5.99 | pIC50 (Daoy): < 5.99 | pIC50 (EFO-27): < 5.99 | pIC50 (G-361): 7.05 | pIC50 (G-402): < 5.99 | pIC50 (HMV-2 cell line): < 5.99 | pIC50 (HT55): < 5.99 | pIC50 (HuCCT-1): < 5.99 | pIC50 (IGROV-1): < 5.99 | pIC50 (K052): 6.10 | pIC50 (LC4-1): 6.25 | pIC50 (LU-99A): < 5.99 | pIC50 (MHH-CALL-2): < 5.99 | pIC50 (MKN-1): < 5.99 | pIC50 (MKN-7): < 5.99 | pIC50 (NCI-H1436): 6.23 | pIC50 (NCI-H1694): 6.01 | pIC50 (NCI-H2452): < 5.99 | pIC50 (NCI-H358): < 5.99 | pIC50 (NCI-H748): < 5.99 | pIC50 (NCI-H810): < 5.99 | pIC50 (OVCAR-5): < 5.99 | pIC50 (PANC-08-13): < 5.99 | pIC50 (RMG-I): < 5.99 | pIC50 (Raji): 6.17 | pIC50 (SF-295): < 5.99 | pIC50 (SK-HEP1): < 5.99 | pIC50 (SK-MM-2): 6.96 | pIC50 (SN12C): < 5.99 | pIC50 (SW626): < 5.99 | pIC50 (SW948): < 5.99 | pIC50 (TCC-SUP): < 5.99 | pIC50 (23132-87): < 5.99 | pIC50 (A-427): < 5.99 | pIC50 (A673): < 5.99 | pIC50 (BC-3): < 5.99 | pIC50 (BFTC-909): < 5.99 | pIC50 (BHY): < 5.99 | pIC50 (C32): < 5.99 | pIC50 (CAL-12T): < 5.99 | pIC50 (CAL-33): < 5.99 | pIC50 (U-118-MG): < 5.99 | pIC50 (WM-115): < 5.99 | pIC50 (CMK): 8.66

C=C(c1ccc(C(=O)O)cc1)c1cc2c(cc1C)C(C)(C)CCC2(C)C [BEXAROTENE]
pIC50 (Capan-2): < 5.10 | pIC50 (Daoy): < 5.10 | pIC50 (EFO-27): < 5.10 | pIC50 (G-361): < 5.10 | pIC50 (G-402): < 5.10 | pIC50 (HMV-2 cell line): < 5.10 | pIC50 (HT55): < 5.10 | pIC50 (HuCCT-1): < 5.10 | pIC50 (IGROV-1): < 5.10 | pIC50 (K052): < 5.10 | pIC50 (LC4-1): < 5.10 | pIC50 (LU-99A): < 5.10 | pIC50 (MHH-CALL-2): < 5.10 | pIC50 (MKN-1): < 5.10 | pIC50 (MKN-7): < 5.10 | pIC50 (NCI-H1436): < 5.10 | pIC50 (NCI-H1694): < 5.10 | pIC50 (NCI-H2452): < 5.10 | pIC50 (NCI-H358): < 5.10 | pIC50 (NCI-H748): < 5.10 | pIC50 (NCI-H810): < 5.10 | pIC50 (OVCAR-5): < 5.10 | pIC50 (PANC-08-13): < 5.10 | pIC50 (RMG-I): < 5.10 | pIC50 (Raji): < 5.10 | pIC50 (SF-295): 5.29 | pIC50 (SK-HEP1): < 5.10 | pIC50 (SK-MM-2): < 5.10 | pIC50 (SN12C): < 5.10 | pIC50 (SW626): < 5.10 | pIC50 (SW948): < 5.10 | pIC50 (TCC-SUP): < 5.10 | pIC50 (23132-87): < 5.10 | pIC50 (A-427): 5.22 | pIC50 (A673): < 5.10 | pIC50 (BC-3): < 5.10 | pIC50 (BFTC-909): < 5.10 | pIC50 (BHY): < 5.10 | pIC50 (C32): < 5.10 | pIC50 (CAL-12T): 5.40 | pIC50 (CAL-33): < 5.10 | pIC50 (U-118-MG): < 5.10 | pIC50 (WM-115): < 5.10 | pIC50 (CMK): < 5.10
